In patent US20020065279A1, “Arylsulfonic acid salts of pyrimidine-based antiviral” (priority 2000, published 2002):
Counter-ions that a name gives are not always drawn. Like-named read-outs stand apart in the source and are kept apart here.

Tests used:
[1] = Acid selection: salt formation of compound 1 with acids; type: physicochemical
From the text: In order to prepare suitable formulations of the compounds of formula I below, standard salt formation methods were pursued. […] These acids represent most of the pharmaceutical salts used today.

[2] = Thermal stability of salts at 45° C. (HPLC purity); type: physicochemical
[3] = Aqueous stability of salts in deionized water (HPLC, UV 254.4 nm); type: physicochemical
Method: The tosylate salts was evaluated at a concentration of 4.7 mg/mL and the besilate salt was evaluated at a concentration of 3.2 mg/mL. Stability was monitored via HPLC using UV detection at 254.4 nm.

[4] = Light stability of salts (ambient light and window glass filtered sunlight, HPLC purity); type: physicochemical
[5] = Aqueous solubility of compound 1 free base and salts; type: physicochemical
From the text: A variety of pyrimidine-based antiviral compounds have been described in co-pending U.S. Ser. No. 09/249,64 1, filed Feb. 12, 1999 and in PCT application US99/03136. The development of a pyrimidine-based antiviral agent (such as those described hereinbelow) for clinical use required the identification of a salt form with optimal physical and chemical properties. The most critical properties included crystallinity, aqueous solubility, light stability and thermal stability. As noted above, applications U.S. Ser. No. 09/249,641 and PCT US99/03136 describe pyrimidine derivatives both as free bases and as their pharmaceutically acceptable salts. Among the salts listed for this group of compounds exre hydrochloric, hydrobromic, nitric, carbonic, monohydrogencarbonic, phosphoric, monohydrogenphosphoric, dihydrogenphosphoric, sulfuric, monohydrogensulfuric, hydriodic, or phosphorous acids and the like, as well as the salts derived from organic acids like acetic, propionic, isobutyric, oxalic, maleic, malonic, benzoic, succinic, suberic, fumaric, mandelic, phthalic, benzenesulfonic, p-tolylsulfonic, citric, tartaric, miethanesulfonic, and the like. Also included are salts of amino acids such as arginate and the like, and salts of organic acids like glucuronic or galactunoric acids and the like.
The besilate and tosylate salts represent improvement over the free base in solubility as described in Table 2 below. The increase in solubility represents a significant advantage over the free base for formulations that are suitable for therapeutic administration.

[6] = pKa of the free base of compound 1
[7] = first printed pKa of the acid; cited from earlier work

O=C(O)c1cccc(O)c1 [3-Hydroxybenzoic]
Result (salt formation with compound 1) ([1]; Solvent EtOAc): No salt formed

CC(=O)O [Acetic]
Result (salt formation with compound 1) ([1]; Solvent Et2O): No salt formed

O=C(O)c1ccccc1 [Benzoic]
Result (salt formation with compound 1) ([1]; Solvent Et2O): No salt formed | Result (salt formation with compound 1) ([1]; Solvent EtOAc): No salt formed

Cc1nc(N2CCOCC2C)nc(-n2ccnc2)c1[N+](=O)[O-] (stereo not drawn) [Besilate Salt, 2-(3S-3-methylmorpholino)-4-(imidazol-1-yl)-6-methyl-5-nitropyrimidine benzenesulfonate]
purity %, HPLC (thermal stability) ([2]; 8 hours): 100% | purity %, HPLC (thermal stability) ([2]; 24 hours): 100% | purity %, HPLC (thermal stability) ([2]; 48 hours): 100% | purity %, HPLC (thermal stability) ([2]; 72 hours): 100% | purity %, HPLC (thermal stability) ([2]; 170 hours): 100% | purity %, HPLC (thermal stability) ([2]; 250 hours): 100% | purity %, HPLC (thermal stability) ([2]; 1632 hours): 100% | purity %, HPLC (aqueous stability) ([3]; 3.2 mg/mL, 48 hours): 100% | purity %, HPLC (aqueous stability) ([3]; 3.2 mg/mL, 147 hours): 100% | purity %, HPLC (aqueous stability) ([3]; 3.2 mg/mL, 171 hours): 97.4% | purity %, HPLC (aqueous stability) ([3]; 3.2 mg/mL, 201 hours): 91.7% | purity %, HPLC (aqueous stability) ([3]; 3.2 mg/mL, 216 hours): 91.7% | purity %, HPLC (aqueous stability) ([3]; 3.2 mg/mL, 1560 hours): 61.4% | purity %, HPLC (light stability) ([4]; 24 hours): 100% | purity %, HPLC (light stability) ([4]; 48 hours): 100% | purity %, HPLC (light stability) ([4]; 216 hours): 97.3% | purity %, HPLC (light stability) ([4]; 1560 hours): 93.1% | Aqueous Solubility ([5]; listed as Resilate Salt): 44 mg/mL

O=C(O)CC(O)(CC(=O)O)C(=O)O [Citric]
Result (salt formation with compound 1) ([1]; Solvent Et2O): No salt formed | Result (salt formation with compound 1) ([1]; Solvent EtOAc): No salt formed | Result (salt formation with compound 1) ([1]; Solvent EtOAc/MeOH): No salt formed

Cc1nc(N2CCOCC2C)nc(-n2ccnc2)c1[N+](=O)[O-] (stereo not drawn) [Compound 1, 2-(3S-3-methylmorpholino)-4-(imidazol-1-yl)-6-methyl-5-nitropyrimidine]
Aqueous Solubility [5]: 1.68 mg/mL | pKa [6]: 4.09

O=C(O)[C@@H](O)[C@H](O)C(=O)O [D-Tartaric]
Result (salt formation with compound 1) ([1]; Solvent EtOAc): No salt formed | Result (salt formation with compound 1) ([1]; Solvent MeOH): No salt formed

O=CO [Formic]
Result (salt formation with compound 1) ([1]; Solvent EtOH): No salt formed

Br [Hydrobromic]
Result (salt formation with compound 1) ([1]; Solvent EtOH): Decomposition

Cl [Hydrochloric]
Result (salt formation with compound 1) ([1]; Solvent CH3CN): Decomposition | Result (salt formation with compound 1) ([1]; Solvent CHCl3): Decomposition | Result (salt formation with compound 1) ([1]; Solvent Et2O): Decomposition | Result (salt formation with compound 1) ([1]; Solvent EtOAc): Decomposition | Result (salt formation with compound 1) ([1]; Solvent IPA): Decomposition | Result (salt formation with compound 1) ([1]; Solvent MeOH): Decomposition

O=C(O)/C=C\C(=O)O [Maleic]
Result (salt formation with compound 1) ([1]; Solvent Et2O): No salt formed | Result (salt formation with compound 1) ([1]; Solvent EtOAc): No salt formed

CS(=O)(=O)O [Methanesulfonic]
Result (salt formation with compound 1) ([1]; Solvent CH2Cl2): Decomposition | Result (salt formation with compound 1) ([1]; Solvent Et2O): Decomposition | Result (salt formation with compound 1) ([1]; Solvent EtOAc): Decomposition | Result (salt formation with compound 1) ([1]; Solvent EtOAc/CH2Cl2): Decomposition | Result (salt formation with compound 1) ([1]; Solvent EtOAc/hexanes): Decomposition

O=[N+]([O-])O [Nitric]
pKa (acid) [7]: −1.4 | Result (salt formation with compound 1) ([1]; Solvent EtOH): Decomposition

O=C(O)c1ccccc1O [Salicylic]
Result (salt formation with compound 1) ([1]; Solvent Et2O): No salt formed | Result (salt formation with compound 1) ([1]; Solvent EtOAc): No salt formed

NC(=O)CCC(=O)O [Succinamic]
pKa (acid) [7]: 4.4 | Result (salt formation with compound 1) ([1]; Solvent EtOAc): No salt formed | Result (salt formation with compound 1) ([1]; Solvent EtOAc/MeOH): No salt formed

O=S(=O)(O)O [Sulfuric]
Result (salt formation with compound 1) ([1]; Solvent EtOH): Decomposition

Cc1ccc(S(=O)(=O)O)cc1 [Toluenesulfonic]
Result (salt formation with compound 1) ([1]; Solvent CHCl3/hexanes): Yellow crystals | Result (salt formation with compound 1) ([1]; Solvent EtOAc): Yellow crystals

Cc1nc(N2CCOCC2C)nc(-n2ccnc2)c1[N+](=O)[O-] (stereo not drawn) [Tosylate Salt, 2-(3S-3-methylmorphoamino)-4-(imidazol-1-yl)-6-methyl-5-nitropyrimidine p-toluenesulfonate]
purity %, HPLC (thermal stability) ([2]; 8 hours): 100% | purity %, HPLC (thermal stability) ([2]; 24 hours): 100% | purity %, HPLC (thermal stability) ([2]; 48 hours): 100% | purity %, HPLC (thermal stability) ([2]; 72 hours): 100% | purity %, HPLC (thermal stability) ([2]; 170 hours): 100% | purity %, HPLC (thermal stability) ([2]; 250 hours): 100% | purity %, HPLC (thermal stability) ([2]; 1632 hours): 100% | purity %, HPLC (aqueous stability) ([3]; 4.7 mg/mL, 48 hours): 100% | purity %, HPLC (aqueous stability) ([3]; 4.7 mg/mL, 147 hours): 100% | purity %, HPLC (aqueous stability) ([3]; 4.7 mg/mL, 171 hours): 97.3% | purity %, HPLC (aqueous stability) ([3]; 4.7 mg/mL, 201 hours): 93.1% | purity %, HPLC (aqueous stability) ([3]; 4.7 mg/mL, 216 hours): 92.8% | purity %, HPLC (aqueous stability) ([3]; 4.7 mg/mL, 1560 hours): 64.6% | purity %, HPLC (light stability) ([4]; 24 hours): 100% | purity %, HPLC (light stability) ([4]; 48 hours): 100% | purity %, HPLC (light stability) ([4]; 216 hours): 97.6% | purity %, HPLC (light stability) ([4]; 1560 hours): 86.6% | Aqueous Solubility [5]: 36 mg/mL

Benzenesulfonic
pKa (acid) [7]: 1.6 | Result (salt formation with compound 1) ([1]; Solvent CH2Cl2/hexanes): Yellow crystals | Result (salt formation with compound 1) ([1]; Solvent CH3CN): Yellow crystals | Result (salt formation with compound 1) ([1]; Solvent CHCl3/hexanes): Yellow crystals | Result (salt formation with compound 1) ([1]; Solvent EtOAc/MeOH): Yellow crystals | Result (salt formation with compound 1) ([1]; Solvent EtOH): Yellow crystals | Result (salt formation with compound 1) ([1]; Solvent EtOH/hexanes): Yellow crystals

Fumaric
Result (salt formation with compound 1) ([1]; Solvent EtOAc/MeOH): No salt formed

L-Tartaric
Result (salt formation with compound 1) ([1]; Solvent Et2O): No salt formed | Result (salt formation with compound 1) ([1]; Solvent EtOAc): No salt formed | Result (salt formation with compound 1) ([1]; Solvent EtOH): No salt formed | Result (salt formation with compound 1) ([1]; Solvent MeOH): No salt formed
